From patent US9494573B2, “In vitro tumor in dish kit and method” (University of Kansas, priority 2012, dated 2016) come the findings set out here.

Data set [1] concerns normal cells in the PLiD.
Data set [2] concerns human ovarian cancer epithelial cells from ascites fluid. As to the kind of experiment: Tumor in Dish model using primary tumor cells: cancer cells. It is filed as cell-based. The following applies: TiD with primary patient cells, FIG. 5.
Excerpt: Human ovarian cancer epithelial cells were isolated from the ascites fluid of a patient and combined with normal cells as described in Example 1 to form TiD.

On to `N.N.[Cl][Pt][Cl]` [cisplatin], for which the “effect on the surrounding normal cells” value in data set [1] is on record as “affected the normal cells”. In data set [2], the “killing of ovarian cancer cells from the ascites fluid” value is “killed most of the ovarian cancer cells”.
